# Reference: patent publication US20240228555A9, “ANTIMICROBIAL PEPTIDOMIMETICS” (Basilea Pharmaceutica International AG, Allschwil, priority 2020, published 2024)
# Like-named read-outs stand apart in the source and are kept apart here. Where a SMILES comes first, the peptide text is derived from it. Where no end group is shown, it is not given here. [ ]: non-standard residue; d: D form. Hyp = O=C(O)[C@@H]1C[C@@H](O)CN1; Pen = CC(C)(S)[C@H](N)C(=O)O; dDab = NCC[C@@H](N)C(=O)O; Dab = NCC[C@H](N)C(=O)O
# Columns and labels:
# [1] = system: human red blood cells (hRBC); format: cell-based
# Experimental: (§1) Lyophilized peptides were weighed on a Microbalance (Mettler MT5) and dissolved in sterile water to a final concentration of 1 mg/mL. Stock solutions were kept at +4° C., light protected.
# The peptides were tested for their hemolytic activity against human red blood cells (hRBC). Fresh hRBC were washed three times with phosphate buffered saline (PBS) and centrifuged for 5 min at 3000×g. Compounds (200 μg/mL) were incubated with 20% hRBC (v/v) for 1 h at 37° C. and shaking at 300 rpm. A value of 0% and 100% cell lyses, respectively, was determined by incubation of hRBC in the presence of PBS and 2.5% Triton X-100 in H2O, respectively. The samples were centrifuged, the supernatants were 8-fold diluted in PBS buffer and the optical densities (OD) were measured at 540 nm. The 100% lyses value (OD540H2O) gave an OD540 of approximately 0.5-1.0.
# Percent hemolysis was calculated as follows: (OD540peptide/OD540H2O)×100%.
# [2] = system: Klebsiella pneumoniae SSI3010
# Experimental: as §1
# (§2) Colonies of the microorganisms were diluted in saline (0.85%, NaCl) and adjusted using a McFarland reader (bioMérieux SA, Marcy-l'Etoile, France) to 0.5 McFarland standard. Subsequently, the bacterial suspension was diluted in Mueller-Hinton II (MHII, cation adjusted) broth to give approximately 5×10^5 colony forming units (CFU/mL).
# (§3) 10^6 colony forming units (CFU)/mL. Aliquots (90 μl) of inoculate were added to 10 μl of water+P-80 (Polysorbate 80, 0.002% final concentration) containing the peptide in serial two-fold dilutions at 10 fold final concentration. The following microorganisms were used to determine antibiotic selectivity of the peptides: Escherichia coli ATCC 25922, Escherichia coli MCR-1 Af 45 and Klebsiella pneumoniae SSI3010.
# [3] = system: Escherichia coli ATCC 25922
# Experimental: as §1, §2, §3
# [4] = system: Escherichia coli MCR-1 Af 45; conditions: Mueller-Hinton broth II, no visible growth after 18-20 hours at 35° C.
# Experimental: as §1, §2, §3
# [5] = red cells of human, 1 h, 0.2 g/L
# [6] = Mueller-Hinton broth II, no visible growth after 18-20 hours at 35° C.
Molecule,"Hemolysis at 0.2 g/L [1, 5]",Klebsiella pneumoniae SSI3010 MIC ([2]; SSI3010),Escherichia coli ATCC 25922 MIC ([3]; ATCC 25922),Escherichia coli MCR-1 Af 45 MIC [4],Hemolysis at 0.2 g/L [1],"Klebsiella pneumoniae SSI3010 MIC [2, 6]","Escherichia coli ATCC 25922 MIC [3, 6]"
"CC[C@H](C)[C@H](NC(=O)[C@@H]1CCCN1C(=O)[C@@H](N)C(C)C)C(=O)N[C@H](C(=O)N[C@@H](Cc1ccc(O)cc1)C(=O)N[C@@H]1C(=O)N[C@@H](CC(N)=O)C(=O)N[C@@H](CCCNC(=N)N)C(=O)N[C@@H](CCN)C(=O)N[C@@H]([C@@H](C)O)C(=O)N[C@H](CCN)C(=O)N[C@@H](CCCCN)C(=O)N[C@H](C(=O)N[C@@H](CCN)C(=O)N[C@@H](CCCNC(=N)N)C(=O)N[C@@H](Cc2ccc(O)cc2)C(=O)O)CSSC1(C)C)[C@@H](C)O [Example 80, Val-Pro-Ile-Thr-Tyr-Pen-Asn-Arg-Dab-Thr-^DDab-Lys-Cys-Dab-Arg-Tyr] (HELM PEPTIDE1{V.P.I.T.Y.[Pen].N.R.[Dab].T.[NCC[C@@H](N[*:1])C(=O)[*:2]].K.C.[Dab].R.Y}$PEPTIDE1,PEPTIDE1,6:R3-13:R3$$$V2.0)",<1%,0.25 mg/L,0.125 mg/L,0.0625 mg/L,–,–,–
"CC[C@H](C)[C@@H]1NC(=O)[C@@H](NC(=O)[C@H](Cc2ccc(O)cc2)NC(=O)[C@@H](NC(=O)[C@@H](NC(=O)[C@@H]2C[C@@H](O)CN2C(=O)[C@@H](N)C(C)C)[C@@H](C)CC)[C@@H](C)O)C(C)(C)SSC[C@@H](C(=O)N[C@@H](CCN)C(=O)N[C@@H](CCCNC(C)C)C(=O)N[C@@H](Cc2ccc(O)cc2)C(=O)O)NC(=O)[C@H](CCCCN)NC(=O)[C@@H](CCN)NC(=O)[C@H]([C@@H](C)O)NC(=O)[C@H](CCN)NC(=O)[C@H](CCCNC(=N)N)NC1=O [Example 137, Hyp-Ile-Thr-Tyr-Pen-Ile-Arg-Dab-Thr-^DDab-Lys-Cys-Dab-Orn(iPr)-Tyr] (HELM PEPTIDE1{V.[Hyp].I.T.Y.[Pen].I.R.[Dab].T.[NCC[C@@H](N[*:1])C(=O)[*:2]].K.C.[Dab].[CC(C)NCCC[C@H](N[*:1])C(=O)[*:2]].Y}$PEPTIDE1,PEPTIDE1,6:R3-13:R3$$$V2.0)",<1%,0.25 mg/L,0.125 mg/L,0.125 mg/L,–,–,–
"CC[C@H](C)[C@H](NC(=O)[C@@H](NC(=O)[C@@H]1C[C@@H](O)CN1C(=O)[C@@H](N)C(C)C)[C@@H](C)CC)C(=O)N[C@@H](Cc1ccc(O)cc1)C(=O)N[C@@H]1C(=O)N[C@@H](CC(N)=O)C(=O)N[C@@H](CCCNC(=N)N)C(=O)N[C@@H](CCN)C(=O)N[C@@H]([C@@H](C)O)C(=O)N[C@H](CCN)C(=O)N[C@@H](CCCNC(N)=O)C(=O)N[C@H](C(=O)N[C@@H](CCN)C(=O)N[C@@H](CCCNC(=N)N)C(=O)N[C@@H](Cc2ccc(O)cc2)C(=O)O)CSSC1(C)C [Example 98, Val-Hyp-Ile-Ile-Tyr-Pen-Asn-Arg-Dab-Thr-^DDab-Cit-Cys-Dab-Arg-Tyr] (HELM PEPTIDE1{V.[Hyp].I.I.Y.[Pen].N.R.[Dab].T.[NCC[C@@H](N[*:1])C(=O)[*:2]].[Cit].C.[Dab].R.Y}$PEPTIDE1,PEPTIDE1,6:R3-13:R3$$$V2.0)",<1%,0.5 mg/L,0.25 mg/L,0.25 mg/L,–,–,–
V[Hyp]ITY[Pen]NR[Dab]T[dDab]NC[Dab]RY (cysteine pairing not given here) [Example 40],–,–,–,0.25 mg/L,0%,0.5 mg/L,0.25 mg/L
"CC[C@H](C)[C@H](NC(=O)[C@@H]1C[C@@H](O)CN1C(=O)[C@@H](N)C(C)C)C(=O)N[C@H](C(=O)N[C@@H](Cc1ccc(O)cc1)C(=O)N[C@@H]1C(=O)N[C@@H](CC(N)=O)C(=O)N[C@@H](CCCNC(=N)N)C(=O)N[C@@H](CCN)C(=O)N[C@@H](CO)C(=O)N[C@H](CCN)C(=O)N[C@@H](CCCCN)C(=O)N[C@H](C(=O)N[C@@H](CCN)C(=O)N[C@@H](CCCN)C(=O)N[C@@H](Cc2ccc(O)cc2)C(=O)O)CSSC1(C)C)[C@@H](C)O [Example 94, Val-Hyp-Ile-Thr-Tyr-Pen-Asn-Arg-Dab-Ser-^DDab-Lys-Cys-Dab-Orn-Tyr] (HELM PEPTIDE1{V.[Hyp].I.T.Y.[Pen].N.R.[Dab].S.[NCC[C@@H](N[*:1])C(=O)[*:2]].K.C.[Dab].[Orn].Y}$PEPTIDE1,PEPTIDE1,6:R3-13:R3$$$V2.0)",<1%,0.25 mg/L,0.0625 mg/L,0.0625 mg/L,–,–,–
"CC[C@H](C)[C@H](NC(=O)[C@@H]1C[C@@H](O)CN1C(=O)[C@@H](N)C(C)C)C(=O)N[C@@H](CCN)C(=O)N[C@@H](Cc1ccc(O)cc1)C(=O)N[C@@H]1C(=O)N[C@@H](CC(N)=O)C(=O)N[C@@H](CCCNC(=N)N)C(=O)N[C@@H](CCN)C(=O)N[C@@H](CO)C(=O)N[C@H](CCN)C(=O)N[C@@H](CCCCN)C(=O)N[C@H](C(=O)N[C@@H](CCN)C(=O)N[C@@H](CCN)C(=O)N[C@@H](Cc2ccc(O)cc2)C(=O)O)CSSC1(C)C [Example 81, Val-Hyp-Ile-Dab-Tyr-Pen-Asn-Arg-Dab-Ser-^DDab-Lys-Cys-Dab-Dab-Tyr] (HELM PEPTIDE1{V.[Hyp].I.[Dab].Y.[Pen].N.R.[Dab].S.[NCC[C@@H](N[*:1])C(=O)[*:2]].K.C.[Dab].[Dab].Y}$PEPTIDE1,PEPTIDE1,6:R3-13:R3$$$V2.0)",<1%,0.5 mg/L,0.125 mg/L,0.0625 mg/L,–,–,–
"CC[C@H](C)[C@H](NC(=O)[C@@H](NC(=O)[C@@H]1C[C@@H](O)CN1C(=O)[C@@H](N)C(C)C)[C@@H](C)CC)C(=O)N[C@@H](Cc1ccc(O)cc1)C(=O)N[C@@H]1C(=O)N[C@@H](CC(N)=O)C(=O)N[C@@H](CCCNC(=N)N)C(=O)N[C@@H](CCN)C(=O)N[C@@H](CO)C(=O)N[C@H](CCN)C(=O)N[C@@H](CCCCN)C(=O)N[C@H](C(=O)N[C@@H](CCN)C(=O)N[C@H](C(=O)N[C@@H](Cc2ccc(O)cc2)C(=O)O)[C@@H](C)O)CSSC1(C)C [Example 112, Val-Hyp-Ile-Ile-Tyr-Pen-Asn-Arg-Dab-Ser-^DDab-Lys-Cys-Dab-Thr-Tyr] (HELM PEPTIDE1{V.[Hyp].I.I.Y.[Pen].N.R.[Dab].S.[NCC[C@@H](N[*:1])C(=O)[*:2]].K.C.[Dab].T.Y}$PEPTIDE1,PEPTIDE1,6:R3-13:R3$$$V2.0)",<1%,0.25 mg/L,0.25 mg/L,0.0625 mg/L,–,–,–
"CC[C@H](C)[C@H](NC(=O)[C@@H](NC(=O)[C@@H]1C[C@@H](O)CN1C(=O)[C@@H](N)C(C)C)[C@@H](C)CC)C(=O)N[C@@H](Cc1ccc(O)cc1)C(=O)N[C@@H]1C(=O)N[C@@H](CC(N)=O)C(=O)N[C@@H](CCCNC(=N)N)C(=O)N[C@@H](CCN)C(=O)N[C@@H]([C@@H](C)O)C(=O)N[C@H](CCN)C(=O)N[C@@H](CCCCN)C(=O)N[C@H](C(=O)N[C@@H](CCN)C(=O)N[C@@H](CCCN)C(=O)N[C@@H](Cc2ccc(O)cc2)C(=O)O)CSSC1(C)C [Example 85, Val-Hyp-Ile-Ile-Tyr-Pen-Asn-Arg-Dab-Thr-^DDab-Lys-Cys-Dab-Orn-Tyr] (HELM PEPTIDE1{V.[Hyp].I.I.Y.[Pen].N.R.[Dab].T.[NCC[C@@H](N[*:1])C(=O)[*:2]].K.C.[Dab].[Orn].Y}$PEPTIDE1,PEPTIDE1,6:R3-13:R3$$$V2.0)",<1%,0.25 mg/L,0.125 mg/L,0.0625 mg/L,–,–,–
"CC[C@H](C)[C@H](NC(=O)[C@@H](NC(=O)[C@@H]1C[C@@H](O)CN1C(=O)[C@@H](N)C(C)C)[C@@H](C)CC)C(=O)N[C@@H](Cc1ccc(O)cc1)C(=O)N[C@@H]1C(=O)N[C@@H](CC(N)=O)C(=O)N[C@@H](CCCNC(=N)N)C(=O)N[C@@H](CCN)C(=O)N[C@@H]([C@@H](C)O)C(=O)N[C@H](CCN)C(=O)N[C@@H]([C@@H](C)CC)C(=O)N[C@H](C(=O)N[C@@H](CCN)C(=O)N[C@@H](CCCN)C(=O)N[C@@H](Cc2ccc(O)cc2)C(=O)O)CSSC1(C)C [Example 97, Val-Hyp-Ile-Ile-Tyr-Pen-Asn-Arg-Dab-Thr-^DDab-Ile-Cys-Dab-Orn-Tyr] (HELM PEPTIDE1{V.[Hyp].I.I.Y.[Pen].N.R.[Dab].T.[NCC[C@@H](N[*:1])C(=O)[*:2]].I.C.[Dab].[Orn].Y}$PEPTIDE1,PEPTIDE1,6:R3-13:R3$$$V2.0)",<1%,0.5 mg/L,0.25 mg/L,0.25 mg/L,–,–,–
